Laboratory results published in US11708562B2, “Differentiation of human embryonic stem cells” (Janssen Biotech, Inc., priority 2006, dated 2023).

Test system: human embryonic stem cell line H7
Assay: FACS protein expression with time following activin A treatment (Table IIB)
Assay type: cell-based
Settings: AA 100 ng/ml
Description: The level of expression of definitive endoderm markers was examined by PCR (FIGS. 1A and 1B), FACS (results summarized in Table I), and immunohistochemistry (FIGS. 2A, 2B and 2C).
Adhered cells were removed from culture plates by five-minute incubation with TrypLE™ Express solution (Invitrogen, CA). Released cells were resuspended in human embryonic stem cell culture medium and recovered by centrifugation, followed by washing and resuspending the cells in a staining buffer consisting of 2% BSA, 0.05% sodium azide in PBS (Sigma, MO). As appropriate, the cells were Fc-receptor blocked for 15 minutes using a 0.1% γ-globulin (Sigma) solution. […] Controls included appropriate isotype matched antibodies, unstained cells, and cells stained only with secondary conjugated antibody. All incubations with antibodies were performed for 30 mins at 4° C. after which the cells were washed with the staining buffer. Samples that were stained with unconjugated primary antibodies were incubated for an additional 30 mins at 4° C. with secondary conjugated PE or -APC labeled antibodies. See Table I for a list of secondary antibodies used. Washed cells were pelleted and resuspended in the staining buffer, and the cell surface molecules were identified using a FACS Array (BD Biosciences) instrument, collecting at least 10,000 events.

In the case of “Activin A: a member of the TGFβ superfamily; growth factor (R&D Systems) used to differentiate human embryonic stem cells”, the “CXCR4+ C-Kit+ cells (FACS)” value (1-day) is reported as 2.97%, the “CXCR4+ CD9+ cells (FACS)” value (1-day) is reported as 8.13% and the “CXCR4+ EPCAM+ cells (FACS)” value (1-day) is reported as 14.58%. For the same substance, the “CXCR4+ cells (FACS)” value (1-day) was 6%, the “CXCR4+ C-Kit+ cells (FACS)” value (3-day) was 31.56% and the “CXCR4+ CD9+ cells (FACS)” value (3-day) was 24.11%. The “CXCR4+ EPCAM+ cells (FACS)” value (3-day) was 36.67%, the “CXCR4+ cells (FACS)” value (3-day) was 38% and the “CXCR4+ C-Kit+ cells (FACS)” value (5-day) was 55.21%. The “CXCR4+ CD9+ cells (FACS)” value (5-day) was 2.1%, the “CXCR4+ EPCAM+ cells (FACS)” value (5-day) was 54.5% and the “CXCR4+ cells (FACS)” value (5-day) was 65.5%.
